Consider 1 molecule from patent US20130053337A1, “GUANIDINYLATED AMINOGLYCOSIDE-LIPID CONJUGATES” (UNIVERSITY OF MANITOBA, priority 2010, published 2013).

One data set deals with S. aureus ATCC 29213. As to the kind of experiment: MIC, broth macrodilution (CLSI). The format is cell-based, Staphylococcus aureus. To be noted: S. aureus ATCC29213. A digest of the protocol: (§1)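 Doubling peptide dilutions, cation-adjusted MH broth, ~5×10^5 cfu/ml inoculum, 24 h ambient air, then read. CLSI 2006 macrobroth method; duplicates; inocula checked by colony counts.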

The subject of a further data set is MRSA ATCC 33592. As to the kind of experiment: MIC, broth macrodilution (CLSI). The class given is cell-based, methicillin-resistant Staphylococcus aureus. The conditions noted are these: MRSA ATCC33592. A digest of the protocol: as §1
For data set [1], the system named is S. epidermidis ATCC 14990. As to the kind of experiment: MIC, broth macrodilution (CLSI). The format is cell-based, Staphylococcus epidermidis. To be noted: S. epidermidis ATCC14990. A digest of the protocol:
as §1

In the next data set the test system is MRSE CAN-ICU 61589. As to the kind of experiment: MIC, broth macrodilution (CLSI). The format is cell-based, methicillin-resistant Staphylococcus epidermidis. In outline:
as §1

The next data set deals with S. pneumoniae ATCC 49619. As to the kind of experiment: MIC, broth macrodilution (CLSI), broth with 5% laked horse blood. The format is cell-based, Streptococcus pneumoniae. To be noted: S. pneumoniae ATCC49619. In outline: as §1
Data set [2] relates to E. coli (gentamicin-resistant) CAN-ICU 61714. As to the kind of experiment: MIC, broth macrodilution (CLSI). The class given is cell-based. The conditions noted are these: E. coli CAN-ICU 61714. A digest of the protocol:
as §1

A further data set has as its system E. coli ATCC 25922. As to the kind of experiment: MIC, broth macrodilution (CLSI). The format is cell-based. To be noted: E. coli ATCC25922. In outline: as §1
The subject of data set [3] is P. aeruginosa (gentamicin-resistant) CAN-ICU 62308. As to the kind of experiment: MIC, broth macrodilution (CLSI). The class given is cell-based. The conditions noted are these: P. aeruginosa CAN-ICU 62308. A digest of the protocol:
as §1

Another data set deals with P. aeruginosa ATCC 27853. As to the kind of experiment: MIC, broth macrodilution (CLSI). The format is cell-based. To be noted: P. aeruginosa ATCC27853. A digest of the protocol: as §1
Data set [4] relates to sheep red blood cell (erythrocytes). As to the kind of experiment: Hemolytic assay (in vitro toxicity). To be noted: 100 mg/L; sheep erythrocytes; percent hemolysis.
In data set [5] the test system is methicillin-resistant S. aureus (MRSA). The conditions noted are these: Bera et al., 2008; cited from earlier work.

Values after ≈ are worked out from the molar mass of the structure shown.

As to `NC[C@@H]1O[C@H](O[C@H]2[C@@H](O)[C@H](O[C@@H]3[C@@H](O)[C@H](N)C[C@H](N)[C@H]3O[C@H]3O[C@H](CN)[C@@H](O)[C@H](O)[C@H]3N)O[C@@H]2CO)[C@H](N)[C@@H](O)[C@@H]1O` [Neomycin B, reference compound], the MIC (commonly the least concentration at which growth counts as inhibited) in the data set with S. aureus ATCC 29213 amounted to 1 µg/mL (≈ 1.63 µM); against MRSA ATCC 33592, 256 µg/mL (≈ 416 µM); in data set [1] it was 0.25 µg/mL (≈ 0.407 µM); against MRSE CAN-ICU 61589, 0.5 µg/mL (≈ 0.813 µM); against S. pneumoniae ATCC 49619, 32 µg/mL (≈ 52.1 µM); in data set [2], 8 µg/mL (≈ 13 µM). The minimal inhibitory concentration (MIC) was 4 µg/mL (≈ 6.51 µM) against E. coli ATCC 25922, 512 µg/mL (≈ 833 µM) in data set [3], 512 µg/mL (≈ 833 µM) in the data set on P. aeruginosa ATCC 27853 and 256 µg/mL (≈ 416 µM) in [5]. In addition, the “hemolytic activity at 100 mg/L” value in [4] is less than 0.3%.
